Test results taken from ChEMBL document CHEMBL6134814, “Asiatic acid and its derivatives: Pharmacological insights and applications” (Eur J Med Chem, 2025).
One block for each molecule: values may come before it.

How the values were obtained:
HeLa = assay: Antiproliferative activity against human HeLa cells; assay type: functional, cell-based
HepG2 [1] = assay: Antiproliferative activity against human HepG2 cells; assay type: functional, cell-based
BGC-823 = assay: Antiproliferative activity against human BGC-823 cells; assay type: functional, cell-based
A2780 [2] = assay: Cytotoxicity against human A2780 cells assessed as reduction in cell growth incubated for 72 hrs by SRB assay; assay type: functional, cell-based; conditions: A2780, 72 h
HT-29 [3] = assay: Cytotoxicity against human HT-29 cells assessed as reduction in cell growth incubated for 72 hrs by SRB assay; assay type: functional, cell-based; conditions: HT-29, 72 h
MCF7 [4] = assay: Cytotoxicity against human MCF7 cells assessed as reduction in cell growth incubated for 72 hrs by SRB assay; assay type: functional, cell-based; conditions: MCF7, 72 h
A-375 [5] = assay: Cytotoxicity against human A-375 cells assessed as reduction in cell growth incubated for 72 hrs by SRB assay; assay type: functional, cell-based; conditions: A-375, 72 h
HepG2 [6] = assay: Antiproliferative activity against human HepG2 cells assessed as reduction in cell viability incubated for 72 hrs by MTT assay; assay type: functional, cell-based; conditions: HepG2, 72 h
SGC-7901 [7] = assay: Antiproliferative activity against human SGC-7901 cells assessed as reduction in cell viability incubated for 72 hrs by MTT assay; assay type: functional, cell-based; conditions: SGC-7901, 72 h
HT-29 [8] = assay: Antiproliferative activity against human HT-29 cells assessed as reduction in cell viability incubated for 72 hrs by MTT assay; assay type: functional, cell-based; conditions: HT-29, 72 h
HepG2 [9] = assay: Cytotoxicity against human HepG2 cells assessed as reduction in cell viability incubated for 48 hrs by MTT assay; assay type: functional, cell-based; conditions: HepG2, 48 h
SK-LU-1 = assay: Cytotoxicity against human SK-LU-1 cells assessed as reduction in cell viability incubated for 48 hrs by MTT assay; assay type: functional, cell-based; conditions: SK-LU-1, 48 h
KB = assay: Cytotoxicity against human KB cells assessed as reduction in cell viability incubated for 48 hrs by MTT assay; assay type: functional, cell-based
[10] = Inhibition of alpha-glucosidase (unknown origin); set-up: species or system Homo sapiens
Hepatocyte [11] = assay: Hepatoprotective activity against glucosamine-induced liver injury in rat hepatocytes assessed as at 50 uM relative to control; assay type: functional
Hepatocyte [12] = assay: Hepatoprotective activity against CCl4-induced liver injury in male Wistar rat hepatocytes assessed as at 50 uM relative to control; assay type: functional
HCT-116 [13] = assay: Cytotoxicity against human HCT-116 cells assessed as reduction in cell viability incubated fro 48 hrs by MTT assay; assay type: functional, cell-based; conditions: HCT-116, 48 h
[14] = Cytotoxicity against human SPCA1 cells assessed as reduction in cell viability incubated fro 48 hrs by MTT assay; assay type: functional, cell-based; conditions: SPCA1, 48 h
SK-OV-3 [15] = assay: Cytotoxicity against human SK-OV-3 cells assessed as reduction in cell viability incubated fro 48 hrs by MTT assay; assay type: functional, cell-based; conditions: SK-OV-3, 48 h
B16-F10 = assay: Anticancer activity against mouse B16-F10 cells assessed as reduction in cell growth incubated for 72 hrs by CCK-8 assay; assay type: functional, cell-based; conditions: B16-F10, 72 h
HL-60 = assay: Cytotoxicity against human HL-60 cells assessed as reduction in cell growth incubated for 72 hrs by MTT assay; assay type: functional, cell-based; conditions: HL-60, 72 h
HepG2 [16] = assay: Cytotoxicity against human HepG2 cells assessed as reduction in cell growth incubated for 72 hrs by MTT assay; assay type: functional, cell-based; conditions: HepG2, 72 h
HCT-116 [17] = assay: Cytotoxicity against human HCT-116 cells assessed as reduction in cell growth incubated for 72 hrs by MTT assay; assay type: functional, cell-based; conditions: HCT-116, 72 h
MCF7 [18] = assay: Cytotoxicity against human MCF7 cells assessed as reduction in cell growth incubated for 72 hrs by MTT assay; assay type: functional, cell-based; conditions: MCF7, 72 h
A2780 [19] = assay: Cytotoxicity against human A2780 cells assessed as reduction in cell growth incubated for 72 hrs by MTT assay; assay type: functional, cell-based; conditions: A2780, 72 h
K562 = assay: Cytotoxicity against human K562 cells assessed as reduction in cell viability incubated for 24 hrs by MTT assay; assay type: functional, cell-based; conditions: K562, 24 h
A549 = assay: Antiproliferative activity against human A549 cells assessed as reduction in cell viability incubated for 72 hrs by CCK-8 assay; assay type: functional, cell-based; conditions: A549, 72 h
[20] = Antiproliferative activity against human PC9 Gefitinib-resistant (GR) cell assessed as reduction in cell viability incubated for 72 hrs by CCK-8 assay; assay type: functional, cell-based
SK-OV-3 [21] = assay: Anticancer activity against human SK-OV-3 cells assessed as reduction in cell growth at 40 microg/ml incubated for 72 hrs by MTT assay relative to control; assay type: functional; set-up: scale not given: the % may be the effect or the level left; conditions: dose 40 µg/ml
OVCAR-3 = assay: Anticancer activity against human OVCAR-3 cells assessed as reduction in cell growth at 40 microg/ml incubated for 72 hrs by MTT assay relative to control; assay type: functional; set-up: scale not given: the % may be the effect or the level left; conditions: dose 40 µg/ml
HepG2 [22] = assay: Antiproliferative activity against human HepG2 cells assessed as reduction in cell viability incubated for 48 hrs by MTT assay; assay type: functional, cell-based; conditions: HepG2, 48 h
SGC-7901 [23] = assay: Antiproliferative activity against human SGC-7901 cells assessed as reduction in cell viability incubated for 48 hrs by MTT assay; assay type: functional, cell-based; conditions: SGC-7901, 48 h
Carbonic anhydrase 9 = Carbonic anhydrase 9 (Homo sapiens, UniProt Q16790); assay: Binding affinity to human carbonic anhydrase 9 assessed as inhibition constant
[24] = biological target: Carbonic anhydrase 5A, mitochondrial (Homo sapiens, UniProt P35218); assay: Binding affinity to human carbonic anhydrase 5A assessed as inhibition constant
Sequence of Carbonic anhydrase 5A, mitochondrial (P35218 whole entry): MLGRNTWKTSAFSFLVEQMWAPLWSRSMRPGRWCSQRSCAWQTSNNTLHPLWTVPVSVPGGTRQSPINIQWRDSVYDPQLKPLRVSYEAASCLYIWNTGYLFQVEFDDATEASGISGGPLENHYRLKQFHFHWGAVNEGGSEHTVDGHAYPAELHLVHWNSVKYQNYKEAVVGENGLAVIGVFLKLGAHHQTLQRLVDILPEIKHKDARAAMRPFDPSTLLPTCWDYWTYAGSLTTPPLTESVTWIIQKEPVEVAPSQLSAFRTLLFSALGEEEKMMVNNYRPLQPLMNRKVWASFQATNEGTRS

Carbonic anhydrase 2 = Carbonic anhydrase 2 (Homo sapiens, UniProt P00918); assay: Binding affinity to human carbonic anhydrase 2 assessed as inhibition constant
Carbonic anhydrase 1 = Carbonic anhydrase 1 (Homo sapiens, UniProt P00915); assay: Binding affinity to human carbonic anhydrase I assessed as inhibition constant
Sequence of Carbonic anhydrase 1 (P00915 whole entry): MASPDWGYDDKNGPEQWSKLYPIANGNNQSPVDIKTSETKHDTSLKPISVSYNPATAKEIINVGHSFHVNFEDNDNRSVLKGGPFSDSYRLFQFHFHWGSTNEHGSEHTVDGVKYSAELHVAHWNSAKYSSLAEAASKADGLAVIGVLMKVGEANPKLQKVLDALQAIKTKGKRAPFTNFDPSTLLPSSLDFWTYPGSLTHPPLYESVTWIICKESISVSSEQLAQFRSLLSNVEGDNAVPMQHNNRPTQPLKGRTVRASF

Jurkat = assay: Antiproliferative activity against human Jurkat cells assessed as reduction in cell growth incubated for 72 hrs by XTT assay; assay type: functional, cell-based
A-375 [25] = assay: Antiproliferative activity against human A-375 cells assessed as reduction in cell growth incubated for 72 hrs by MTT assay; assay type: functional, cell-based; conditions: A-375, 72 h
MIA PaCa-2 = assay: Antiproliferative activity against human MIA PaCa-2 cells assessed as reduction in cell growth incubated for 72 hrs by MTT assay; assay type: functional, cell-based; conditions: MIA PaCa-2, 72 h
PC-3 = assay: Antiproliferative activity against human PC-3 cells assessed as reduction in cell growth incubated for 72 hrs by MTT assay; assay type: functional, cell-based; conditions: PC-3, 72 h

Compound: CC(=O)O[C@@H]1C[C@@]2(C)[C@@H](CC[C@]3(C)[C@@H]2CC=C2[C@@H]4[C@@H](C)[C@H](C)CC[C@]4(C(=O)N4CCCN(C(=O)c5ccccc5-c5c6ccc(=[N+](CCO)CCO)cc-6oc6cc(N(CCO)CCO)ccc56)CCC4)CC[C@]23C)[C@](C)(OC(C)=O)[C@H]1OC(C)=O
IC50 (A2780 [2]): 0.0019 µM
IC50 (HT-29 [3]): 0.012 µM
IC50 (MCF7 [4]): 0.017 µM
IC50 (A-375 [5]): 0.0074 µM

Compound: CCOC(=O)CNC(=O)[C@]12CC[C@@H](C)[C@H](C)[C@H]1C1=CC[C@@H]3[C@@]4(C)C[C@@H](OC(C)=O)[C@H](OC(C)=O)[C@@](C)(COC(C)=O)[C@@H]4CC[C@@]3(C)[C@]1(C)CC2
IC50 (HepG2 [9]): 1.99 µM
IC50 (SK-LU-1): 1.39 µM
IC50 (KB): 1.39 µM

Compound: COC(=O)[C@]12CC[C@@H](C)[C@H](C)[C@H]1C1=CC[C@@H]3[C@@]4(C)C[C@@H](OC(C)=O)C(=O)[C@@](C)(CC(=O)O)[C@@H]4CC[C@@]3(C)[C@]1(C)CC2
Activity (Hepatocyte [11]): 66.4%

Compound: C[C@H]1[C@H](C)CC[C@]2(C(=O)O)CC[C@]3(C)C(=CC[C@@H]4[C@@]5(C)CC[C@H](O)[C@@](C)(CO)[C@@H]5CC[C@]43C)[C@H]12
Activity (Hepatocyte [12]): 58.3%

Compound: CCOP(=O)(OCC)C(NC(=O)[C@]12CC[C@@H](C)[C@H](C)[C@H]1C1=CC[C@@H]3[C@@]4(C)C[C@@H](OC(C)=O)[C@H](OC(C)=O)[C@@](C)(COC(C)=O)[C@@H]4CC[C@@]3(C)[C@]1(C)CC2)c1ccccc1Cl (stereo not given in full)
IC50 (HCT-116 [13]): 26.1 µM
IC50 [14]: 15 µM
IC50 (SK-OV-3 [15]): 27.5 µM

Compound: COC(=O)[C@@]1(C)[C@@H]2CC[C@]3(C)[C@H](CC=C4[C@@H]5[C@@H](C)[C@H](C)CC[C@]5(C(=O)Nc5ccccc5)CC[C@]43C)[C@@]2(C)C[C@@H](OC)[C@@H]1OC(C)=O
IC50 (HL-60): 0.48 µM
IC50 (HepG2 [16]): 1.43 µM
IC50 (HCT-116 [17]): 1.08 µM
IC50 (MCF7 [18]): 3.99 µM
IC50 (A2780 [19]): 1.28 µM

Compound: C[C@H]1[C@H](C)CC[C@]2(C(=O)OCc3ccccc3)CC[C@]3(C)C(=CC[C@@H]4[C@@]5(C)C[C@@H](O)[C@H](O)[C@@](C)(CO)[C@@H]5CC[C@]43C)[C@H]12
IC50 (K562): 4.1 µM

Compound: C[C@H]1[C@H](C)CC[C@]2(C(=O)O)CC[C@]3(C)C(=CC[C@@H]4[C@@]5(C)C[C@@H](O)[C@H](O)[C@@](C)(CO)[C@@H]5CC[C@]43C)[C@H]12 [ASIATIC ACID]
Activity (SK-OV-3 [21]): 50%
Activity (OVCAR-3): 50%

Continued, in another order:

IC50 (HeLa): 4.78 µM
IC50 (HepG2 [1]): 6.84 µM
IC50 (BGC-823): 8.75 µM
Compound: CC(=O)OC[C@@]1(C)[C@@H]2CC[C@]3(C)[C@H](C(=O)C=C4[C@@H]5[C@@H](C)[C@H](C)CC[C@]5(C(=O)OCCO)CC[C@]43C)[C@@]2(C)C[C@@H](OC(C)=O)[C@@H]1OC(C)=O

IC50 (HepG2 [6]): 2.2 µM
IC50 (SGC-7901 [7]): 3.2 µM
Compound: CC(=O)OC[C@@]1(C)[C@@H]2CC[C@]3(C)[C@H](C(=O)C=C4[C@@H]5[C@@H](C)[C@H](C)CC[C@]5(C(=O)Nc5ccccc5CO)CC[C@]43C)[C@@]2(C)C[C@@H](OC(C)=O)[C@@H]1OC(C)=O

IC50 (HT-29 [8]): 4.12 µM
Compound: CC(=O)OC[C@@]1(C)[C@@H]2CC[C@]3(C)[C@H](CC=C4[C@@H]5[C@@H](C)[C@H](C)CC[C@]5(C(=O)NO)CC[C@]43C)[C@@]2(C)C[C@@H](OC(C)=O)[C@@H]1OC(C)=O

IC50 [10]: 1190 µM
Compound: CC(N)C(=O)N1CCN(C(=O)[C@]23CC[C@@H](C)[C@H](C)[C@H]2C2=CC[C@@H]4[C@@]5(C)C[C@@H](O)[C@H](O)[C@@](C)(CO)[C@@H]5CC[C@@]4(C)[C@]2(C)CC3)CC1 (stereo not given in full)

IC50 (B16-F10): 4.2 µM
Compound: COC(=O)C1CCCN1C(=O)[C@]12CC[C@@H](C)[C@H](C)[C@H]1C1=CC[C@@H]3[C@@]4(C)C[C@@H](OC(C)=O)[C@H](OC(C)=O)[C@@](C)(COC(C)=O)[C@@H]4CC[C@@]3(C)[C@]1(C)CC2 (stereo not given in full)

IC50 (A549): 26 µM
Compound: C[C@H]1[C@H](C)CC[C@]2(C(=O)O)CC[C@]3(C)C(=CC[C@@H]4[C@@]5(C)C[C@@H](OC(=O)CCC(=O)O)[C@@H]6OC(C)(C)OC[C@@]6(C)[C@@H]5CC[C@]43C)[C@H]12
IC50 [20]: 25.6 µM

IC50 (HepG2 [22]): 4.18 µM
IC50 (SGC-7901 [23]): 3.96 µM
Compound: COc1cccc(NC(=O)[C@]23CC[C@@H](C)[C@H](C)[C@H]2C2=CC[C@@H]4[C@@]5(C)CC6=NCCN=C6[C@@](C)(C=O)[C@@H]5CC[C@@]4(C)[C@]2(C)CC3)c1

Ki (Carbonic anhydrase 9): 0.0258 µM
Ki [24]: 0.0362 µM
Ki (Carbonic anhydrase 2): 0.298 µM
Ki (Carbonic anhydrase 1): 5.23 µM
Compound: C[C@H]1[C@H](C)CC[C@]2(C(=O)Nc3ccccc3)CC[C@]3(C)C(=CC[C@@H]4[C@@]5(C)C[C@@H](OS(N)(=O)=O)[C@H](OS(N)(=O)=O)[C@@](C)(COS(N)(=O)=O)[C@@H]5CC[C@]43C)[C@H]12

IC50 (Jurkat): 0.11 µM
IC50 (A-375 [25]): 0.25 µM
IC50 (MIA PaCa-2): 0.46 µM
IC50 (PC-3): 0.42 µM
Compound: COC(=O)[C@]12CC[C@@H](C)[C@H](C)[C@H]1C1=CC(=O)[C@@H]3[C@@]4(C)C(C=O)=C[C@@](C)(COS(C)(=O)=O)[C@@H]4CC[C@@]3(C)[C@]1(C)CC2
